How the values were obtained:
AKR1B10_C299A mutant = AKR1B10_C299A mutant (Homo sapiens, UniProt O60218, C299A); experiment: AKR1B10 Inhibition Assay; type: biochemical; details: VC59 0.5-50 µM, 1 h; tolrestat, isolithocholic acid 500 nM, 15 min
AKR1B10 = AKR1B10 (Homo sapiens, UniProt O60218); details: cited from earlier work
Chain of AKR1B10 (O60218 whole entry): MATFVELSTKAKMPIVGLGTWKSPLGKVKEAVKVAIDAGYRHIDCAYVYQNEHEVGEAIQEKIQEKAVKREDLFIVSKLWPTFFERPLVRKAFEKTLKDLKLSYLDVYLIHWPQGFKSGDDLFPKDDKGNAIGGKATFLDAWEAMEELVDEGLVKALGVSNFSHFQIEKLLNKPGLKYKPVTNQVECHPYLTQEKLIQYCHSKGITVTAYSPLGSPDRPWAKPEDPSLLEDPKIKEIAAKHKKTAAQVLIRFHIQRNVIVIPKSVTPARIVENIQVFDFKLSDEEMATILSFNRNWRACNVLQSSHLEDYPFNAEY

Chain of AKR1B10_C299A mutant (O60218 whole entry C299A): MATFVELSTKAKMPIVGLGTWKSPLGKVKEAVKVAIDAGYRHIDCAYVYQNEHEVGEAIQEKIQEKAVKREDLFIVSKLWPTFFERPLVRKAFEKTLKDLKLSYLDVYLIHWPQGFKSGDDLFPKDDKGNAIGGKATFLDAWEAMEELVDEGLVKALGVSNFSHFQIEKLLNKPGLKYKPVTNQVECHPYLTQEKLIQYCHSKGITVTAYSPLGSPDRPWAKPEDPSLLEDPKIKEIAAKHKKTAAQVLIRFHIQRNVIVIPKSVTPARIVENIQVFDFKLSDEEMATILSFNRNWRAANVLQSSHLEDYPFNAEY

Compound | inhibition of AKR1B10_C299A mutant reductase activity (NADPH absorbance assay) (AKR1B10_C299A mutant) | inhibition of AKR1B10 activity by natural electrophilic compounds engaging C299 (AKR1B10)
C[C@H](CCC(=O)O)[C@H]1CC[C@H]2[C@@H]3CC[C@@H]4C[C@@H](O)CC[C@]4(C)[C@H]3CC[C@]12C [isolithocholic acid] | maintained sensitivity | 
CCCCC[C@H](O)/C=C/[C@H]1C=CC(=O)[C@@H]1CCCCCCC(=O)O [prostaglandin A1] |  | inhibit AKR1B10 activity
COc1ccc2c(C(=S)N(C)CC(=O)O)cccc2c1C(F)(F)F [tolrestat] | maintained sensitivity | 
